Test results published in patent US8435929B2, “1-aminocyclopropane carboxylic acid as a fruit thinner” (Valent BioSciences Corporation, priority 2009, dated 2013).

Assays:
[1] = tested on: Tatura 204 peaches; assay: Field thinning study, fruit set of Tatura 204 peaches; format: in vivo, peach; settings: application at late shuck fall
Protocol: A series of field studies on stone fruit thinning were performed over several seasons, on different varieties and in various locations to determine the consistency of the thinning effect of ACC. Even without the application of a chemical thinning agent, crop load (number of fruit remaining divided by the number of flowers or fruit prior to application) was variable. Chemical thinning of stone fruit is variable and dependent on many factors including variety and environment. An acceptable chemical thinning agent is one that gives a substantial and relatively consistent reduction in crop load for a given dose over a wide range of trials.
ACC was sprayed on Tatura 204 peach trees at late shuck fall (Table 3).

[2] = tested on: cotton cotyledons; assay: Cotton cotyledon bioassay, ethylene production; format: in vivo
Excerpt: For laboratory and growth chamber studies, deionized ultra-pure water was used in preparing solutions. Spray solutions were used as soon as possible after mixing. All spray solutions were amended with spray adjuvants as appropriate. A cotton cotyledon bioassay was used in the laboratory to study the effects of ACC or ethephon on induction of ethylene. Ten day old cotton plants with fully expanded cotyledons were used. Sprays were made to the upper (adaxial) surface of the leaves and the plants were then incubated in growth cabinets at the temperatures indicated. The cotyledons were excised at the times indicated and placed in sealed plastic vials. Headspace ethylene samples were measured on a Hewlett Packard 5890 gas chromatograph equipped with a packed Haysep T column (Alltech, Deerfield, Ill.) and a flame ionization detector.
Selected characteristics of ACC conversion to ethylene (i.e. dose response, time course, and temperature effect) were assessed to determine whether the relative consistence of ACC as a stone fruit and apple thinner was related to performance as an ethylene producer. In these bioassays, ACC solutions were applied to cotton cotyledons by a hand sprayer at the doses indicated and all spray solutions contained 0.05% (v/v) L-77.
In the first study, the effect of ACC dose sprays on ethylene produced by cotton cotyledons was determined. (Table 16). Cotton plants were sprayed with solution (ACC at 1, 10, 25, 50, 100, 250, 500, or 1000 ppm) and the cotyledons were excised 6 or 24 h after spraying and incubated in sealed tubes for 4 h. Ethylene levels were determined production was assayed.
In the second study, the time course of ethylene production following application of 500 mg/liter ACC or ethephon was determined (Table 17).
In the third study, the effect of temperature on ethylene production following ACC or ethephon application was determined (Table 18). The incubation of the plants following spraying and the incubation of the detached leaves were performed at 25 and 35° C.

[3] = tested on: Babygold #5 peach; assay: Field thinning study, fruit set of Babygold #5 peach; format: in vivo
[4] = tested on: O'Henry peaches; assay: Field thinning study, fruit set, fruit weight and crop safety of O'Henry peaches
[5] = tested on: Babygold #5 peaches; assay: Scaffold gummosis rating of Babygold #5 peaches; format: in vivo, peach; settings: in vivo
Excerpt: Gummosis is a physiological stress response in which sap oozes from fractures in tree bark and often leads to tree decline. Use of 2-chloroethylphosphonic acid as a stone fruit thinning has been limited because it can stimulate severe incidences of gummosis of stone fruit.

[6] = tested on: Summer Rich peaches; assay: Field thinning study, fruit set, fruit weight and crop safety of Summer Rich peaches
[7] = tested on: Rose Diamond nectarines; assay: Field thinning study, fruit set of Rose Diamond nectarines; format: in vivo, nectarine; settings: application at late shuck fall
[8] = tested on: Pink Lady apples; assay: Field thinning study, fruit set of Pink Lady apples; format: in vivo, apple; settings: for Number of fruit per limb / Total number of fruit: 5 days after full bloom
[9] = 500 ppm, application at petal fall, trial of Table 4
[10] = 500 ppm, application at petal fall, trial of Table 5 (other location)
[11] = 750 ppm, application at petal fall, trial of Table 4
[12] = 750 ppm, application at petal fall, trial of Table 5 (other location)

Gummosis (in words) [5]: little gummosis
SMILES: NC1(C(=O)O)CC1 [ACC, 1-aminocyclopropane carboxylic acid]
Crop load (percent) of treated trees compared to the untreated control ([1]; 100 ppm): 86% | Percent fruit set ([1]; 100 ppm): 65% | Crop load (percent) of treated trees compared to the untreated control ([1]; 300 ppm): 57% | Percent fruit set ([1]; 300 ppm): 43% | Crop load (percent) of treated trees compared to the untreated control ([1]; 500 ppm): 39% | Percent fruit set ([1]; 500 ppm): 30% | Crop load (percent) of treated trees compared to the untreated control ([1]; 1000 ppm): 36% | Percent fruit set ([1]; 1000 ppm): 27% | Ethylene production ([2]; 10 ppm, 6 h after spraying, 25 C): 4.2 nl/g leaf weight/h incubated | Ethylene production ([2]; 10 ppm, 24 h after spraying, 25 C): 13.7 nl/g leaf weight/h incubated | Ethylene production ([2]; 25 ppm, 6 h after spraying, 25 C): 5.9 nl/g leaf weight/h incubated | Ethylene production ([2]; 25 ppm, 24 h after spraying, 25 C): 22.8 nl/g leaf weight/h incubated | Ethylene production ([2]; 50 ppm, 6 h after spraying, 25 C): 8.3 nl/g leaf weight/h incubated | Ethylene production ([2]; 50 ppm, 24 h after spraying, 25 C): 32.4 nl/g leaf weight/h incubated | Ethylene production ([2]; 100 ppm, 6 h after spraying, 25 C): 11.8 nl/g leaf weight/h incubated | Ethylene production ([2]; 100 ppm, 24 h after spraying, 25 C): 45.2 nl/g leaf weight/h incubated | Ethylene production ([2]; 200 ppm, 24 h after application, incubated at 25 C): 35.7 nl/g leaf weight/h incubated | Ethylene production ([2]; 200 ppm, 24 h after application, incubated at 35 C): 19.9 nl/g leaf weight/h incubated | Ethylene production ([2]; 250 ppm, 6 h after spraying, 25 C): 19.4 nl/g leaf weight/h incubated | Ethylene production ([2]; 250 ppm, 24 h after spraying, 25 C): 59.8 nl/g leaf weight/h incubated | Ethylene production ([2]; 500 ppm, 1 h following spray application, 25 C (time course)): 62.8 nl/g leaf weight/h incubated | Ethylene production ([2]; 500 ppm, 4 h following spray application, 25 C (time course)): 36.7 nl/g leaf weight/h incubated | Ethylene production ([2]; 500 ppm, 6 h after spraying, 25 C): 22.8 nl/g leaf weight/h incubated | Ethylene production ([2]; 500 ppm, 15 h following spray application, 25 C (time course)): 45.7 nl/g leaf weight/h incubated | Ethylene production ([2]; 500 ppm, 24 h after spraying, 25 C): 64.4 nl/g leaf weight/h incubated | Ethylene production ([2]; 500 ppm, 24 h following spray application, 25 C (time course)): 49.3 nl/g leaf weight/h incubated | Ethylene production ([2]; 500 ppm, 48 h following spray application, 25 C (time course)): 45.3 nl/g leaf weight/h incubated | Ethylene production ([2]; 1000 ppm, 6 h after spraying, 25 C): 25.1 nl/g leaf weight/h incubated | Ethylene production ([2]; 1000 ppm, 24 h after spraying, 25 C): 92.1 nl/g leaf weight/h incubated | Percent fruit set ([3]; 100 ppm, application at bloom): 67% | Percent fruit set ([3]; 100 ppm, application at shuck split, 0.05% Regulaid adjuvant): 85% | Crop load (percent) of treated trees compared to the water control ([3]; 300 ppm, application at shuck split, 0.05% Regulaid adjuvant): 72% | Percent Fruit Set ([3]; 500 ppm, 10 mm fruitlet timing): 6.7% | Crop load (percent) of treated trees compared to the untreated control [3, 9]: 67% | Percent fruit set [3, 9]: 32% | Crop load (percent) of treated trees compared to the untreated control [3, 10]: 98% | Percent fruit set [3, 10]: 42% | Crop load (percent) of treated trees compared to the untreated control [3, 11]: 50% | Percent fruit set [3, 11]: 24% | Crop load (percent) of treated trees compared to the untreated control [3, 12]: 72% | Percent fruit set [3, 12]: 31% | Crop load (percent) of treated trees compared to the water control ([3]; 1000 ppm, application at shuck split, 0.05% Regulaid adjuvant): 14% | Crop load (percent) of treated trees compared to the untreated control ([4]; 500 ppm at 15 mm fruit stage): 38% | Crop safety on vegetation (0-4 scale) ([4]; 500 ppm at 15 mm fruit stage): 0.7 0-4 scale | Fruit weight at maturity ([4]; 500 ppm at 15 mm fruit stage): 185 g | Percent fruit set ([4]; 500 ppm at 15 mm fruit stage): 16% | Crop load (percent) of treated trees compared to the untreated control ([4]; 500 ppm at petal fall): 79% | Crop safety on vegetation (0-4 scale) ([4]; 500 ppm at petal fall): 0 0-4 scale | Fruit weight at maturity ([4]; 500 ppm at petal fall): 200 g | Percent fruit set ([4]; 500 ppm at petal fall): 23% | Crop load (percent) of treated trees compared to the untreated control ([4]; 750 ppm at 15 mm fruit stage): 21% | Crop safety on vegetation (0-4 scale) ([4]; 750 ppm at 15 mm fruit stage): 2.1 0-4 scale | Fruit weight at maturity ([4]; 750 ppm at 15 mm fruit stage): 235 g | Percent fruit set ([4]; 750 ppm at 15 mm fruit stage): 6% | Crop load (percent) of treated trees compared to the untreated control ([4]; 750 ppm at petal fall): 55% | Crop safety on vegetation (0-4 scale) ([4]; 750 ppm at petal fall): 0.5 0-4 scale | Fruit weight at maturity ([4]; 750 ppm at petal fall): 205 g | Percent fruit set ([4]; 750 ppm at petal fall): 11% | Crop load (percent) of treated trees compared to the untreated control ([6]; 500 ppm at 15 mm fruit stage): 34% | Crop safety on vegetation (0-4 scale) ([6]; 500 ppm at 15 mm fruit stage): 3.0 0-4 scale | Fruit weight at maturity ([6]; 500 ppm at 15 mm fruit stage): 144 g | Percent fruit set ([6]; 500 ppm at 15 mm fruit stage): 24% | Crop load (percent) of treated trees compared to the untreated control ([6]; 500 ppm at petal fall): 55% | Crop safety on vegetation (0-4 scale) ([6]; 500 ppm at petal fall): 0.5 0-4 scale | Fruit weight at maturity ([6]; 500 ppm at petal fall): 140 g | Percent fruit set ([6]; 500 ppm at petal fall): 39% | Crop load (percent) of treated trees compared to the untreated control ([6]; 750 ppm at 15 mm fruit stage): 24% | Crop safety on vegetation (0-4 scale) ([6]; 750 ppm at 15 mm fruit stage): 3.5 0-4 scale | Fruit weight at maturity ([6]; 750 ppm at 15 mm fruit stage): 169 g | Percent fruit set ([6]; 750 ppm at 15 mm fruit stage): 17% | Crop load (percent) of treated trees compared to the untreated control ([6]; 750 ppm at petal fall): 39% | Crop safety on vegetation (0-4 scale) ([6]; 750 ppm at petal fall): 0.8 0-4 scale | Fruit weight at maturity ([6]; 750 ppm at petal fall): 151 g | Percent fruit set ([6]; 750 ppm at petal fall): 28% | Leaf yellowing and leaf loss ([6]; application at petal fall, stated for both varieties (Summer Rich and O'Henry)): minimized leaf yellowing and leaf loss | Crop load (percent) of treated trees compared to the untreated control ([7]; 125 ppm): 88% | Percent fruit set ([7]; 125 ppm): 60% | Crop load (percent) of treated trees compared to the untreated control ([7]; 250 ppm): 90% | Percent fruit set ([7]; 250 ppm): 61% | Crop load (percent) of treated trees compared to the untreated control ([7]; 500 ppm): 65% | Percent fruit set ([7]; 500 ppm): 44% | Crop load (percent) of treated trees compared to the untreated control ([7]; 1000 ppm): 24% | Percent fruit set ([7]; 1000 ppm): 16% | Number of fruit per limb ([8]; 100 ppm): 64 | Total number of fruit ([8]; 100 ppm): 175 | Number of fruit per limb ([8]; 300 ppm): 62 | Total number of fruit ([8]; 300 ppm): 165 | Number of fruit per limb ([8]; 500 ppm): 61 | Total number of fruit ([8]; 500 ppm): 169 | Number of fruit per limb ([8]; 1000 ppm): 58 | Total number of fruit ([8]; 1000 ppm): 124 | Crop load (in words) ([8]; highest rate tested (1000 ppm), early application (full bloom)): reduced crop load slightly
